For one assay, the system named is CD8+ T cells. The assay can be described thus: In vitro immunogenicity: T-cell priming with aAPCs loaded with peptide/MHC and anti-CD28, pMHC multimer readout. The class given is cell-based, human. Conditions: in vitro immunogenicity of HLA class I peptides; pMHC multimer readout after T-cell priming. From the text: In order to obtain information regarding the immunogenicity of the TUMAPs of the present invention, the inventors performed investigations using an in vitro T-cell priming assay based on repeated stimulations of CD8+ T cells with artificial antigen presenting cells (aAPCs) loaded with peptide/MHC complexes and anti-CD28 antibody.
In order to perform in vitro stimulations by artificial antigen presenting cells loaded with peptide-MHC complex (pMHC) and anti-CD28 antibody, the inventors first isolated CD8+ T cells from fresh HLA-A*02 leukapheresis products via positive selection using CD8 microbeads (Miltenyi Biotec, Bergisch-Gladbach, Germany) of healthy donors obtained from the University clinics Mannheim, Germany, after informed consent.
PBMCs and isolated CD8+ lymphocytes were incubated in T-cell medium (TCM) until use consisting of RPMI-Glutamax (Invitrogen, Karlsruhe, Germany) supplemented with 10% heat inactivated human AB serum (PAN-Biotech, Aidenbach, Germany), 100 U/ml Penicillin/100 μg/ml Streptomycin (Cambrex, Cologne, Germany), 1 mM sodium pyruvate (CC Pro, Oberdorla, Germany), 20 μg/ml Gentamycin (Cambrex). 2.5 ng/ml IL7 (PromoCell, Heidelberg, Germany) and 10 U/ml IL-2 (Novartis Pharma, Nürnberg, Germany) were also added to the TCM at this step.
Generation of pMHC/anti-CD28 coated beads, T-cell stimulations and readout was performed in a highly defined in vitro system using four different pMHC molecules per stimulation condition and 8 different pMHC molecules per readout condition.
The purified co-stimulatory mouse IgG2a anti human CD28 Ab 9.3 (Jung et al., 1987) was chemically biotinylated using Sulfo-N-hydroxysuccinimidobiotin as recommended by the manufacturer (Perbio, Bonn, Germany). Beads used were 5.6 μm diameter streptavidin coated polystyrene particles (Bangs Laboratories, Illinois, USA).
pMHC used for positive and negative control stimulations were A*0201/MLA-001 (peptide […] (SEQ ID NO. 303) from modified Melan-A/MART-1) and A*0201/DDX5-001 ([…] from DDX5, SEQ ID NO. 304), respectively.
800.000 beads/200 μl were coated in 96-well plates in the presence of 4×12.5 ng different biotin-pMHC, washed and 600 ng biotin anti-CD28 were added subsequently in a volume of 200 μl. Stimulations were initiated in 96-well plates by co-incubating […] CD8+ T cells with 2×10^5 washed coated beads in 200 μl TCM supplemented with 5 ng/ml IL-12 (PromoCell) for 3 days at 37° C. Half of the medium was then exchanged by fresh TCM supplemented with 80 U/ml IL-2 and incubating was continued for 4 days at 37° C. This stimulation cycle was performed for a total of three times. For the pMHC multimer readout using 8 different pMHC molecules per condition, a two-dimensional combinatorial coding approach was used as previously described (Andersen et al., 2012) with minor modifications encompassing coupling to 5 different fluorochromes. Finally, multimeric analyses were performed by staining the cells with Live/dead near IR dye (Invitrogen, Karlsruhe, Germany), CD8-FITC antibody clone SK1 (BD, Heidelberg, Germany) and fluorescent pMHC multimers. For analysis, a BD LSRII SORP cytometer equipped with appropriate lasers and filters was used. Peptide specific cells were calculated as percentage of total CD8+ cells. Evaluation of multimeric analysis was done using the FlowJo software (Tree Star, Oregon, USA). In vitro priming of specific multimer+ CD8+ lymphocytes was detected by comparing to negative control stimulations.

For a further assay, the target named is HLA-A*02 (Homo sapiens, UniProt P04439, D140Y/D185E/D98H/E176V/E277Q/G131W/G231S/I119V/I121R/I166T/I218V/L300P/N151K/N90K/P208A/P217A/Q86G/Q94H/R138H/R169H). The assay can be described thus: MHC binding assay, UV-ligand exchange with β2m ELISA, HLA-A*02. The settings on record: binding to HLA-A*02 ranged by peptide exchange yield. From the text:
Candidate peptides for T cell based therapies according to the present invention were further tested for their MHC binding capacity (affinity). The individual peptide-MHC complexes were produced by UV-ligand exchange, where a UV-sensitive peptide is cleaved upon UV-irradiation, and exchanged with the peptide of interest as analyzed. Only peptide candidates that can effectively bind and stabilize the peptide-receptive MHC molecules prevent dissociation of the MHC complexes. To determine the yield of the exchange reaction, an ELISA was performed based on the detection of the light chain (β2m) of stabilized MHC complexes. The assay was performed as generally described in Rodenko et al. (Rodenko et al., 2006).
96 well MAXISorp plates (NUNC) were coated over night with 2 ug/ml streptavidin in PBS at room temperature, washed 4× and blocked for 1 h at 37° C. in 2% BSA containing blocking buffer. Refolded HLA-A*02:01/MLA-001 monomers served as standards, covering the range of 15-500 ng/ml. Peptide-MHC monomers of the UV-exchange reaction were diluted 100 fold in blocking buffer. Samples were incubated for 1 h at 37° C., washed four times, incubated with 2 ug/ml HRP conjugated anti-β2m for 1 h at 37° C., washed again and detected with TMB solution that is stopped with […]. Absorption was measured at 450 nm. Candidate peptides that show a high exchange yield (preferably higher than 50%, most preferred higher than 75%) are generally preferred for a generation and production of antibodies or fragments thereof, and/or T cell receptors or fragments thereof, as they show sufficient avidity to the MHC molecules and prevent dissociation of the MHC complexes.
For orientation: In an ELISA, binding on a coated surface is turned into a signal by an enzyme label.

As to “4 (KLMPGTYTL; listed as Homo sapiens) [compound 4]”, in the assay with CD8+ T cells, the “Wells positive [%]” value was “+ (<20% = +)”. In the assay with HLA-A*02, the Peptide exchange entry is recorded as “++++ (> = 75% = ++++)”.

On to “249 (GLCERLVSL; listed as Homo sapiens) [compound 249]”, for which the “Wells positive [%]” value with CD8+ T cells is on record as “+ (<20% = +)”. In the assay with HLA-A*02, the Peptide exchange entry was “++++ (> = 75% = ++++)”.

The record behind these values is patent US10098938B2, “Peptides and combination of peptides for use in immunotherapy against various cancers” (immatics biotechnologies GmbH, priority 2015, dated 2018).
